Our source for the IC50 values is ChEMBL document CHEMBL5729359, “Tri-substituted heteroaryl derivatives as Src homology-2 phosphatase inhibitors” (2022).

The experiment deals with T1, Tyrosine-protein phosphatase non-receptor type 11 (Homo sapiens, UniProt Q06124).
T1 sequence (Q06124 whole entry): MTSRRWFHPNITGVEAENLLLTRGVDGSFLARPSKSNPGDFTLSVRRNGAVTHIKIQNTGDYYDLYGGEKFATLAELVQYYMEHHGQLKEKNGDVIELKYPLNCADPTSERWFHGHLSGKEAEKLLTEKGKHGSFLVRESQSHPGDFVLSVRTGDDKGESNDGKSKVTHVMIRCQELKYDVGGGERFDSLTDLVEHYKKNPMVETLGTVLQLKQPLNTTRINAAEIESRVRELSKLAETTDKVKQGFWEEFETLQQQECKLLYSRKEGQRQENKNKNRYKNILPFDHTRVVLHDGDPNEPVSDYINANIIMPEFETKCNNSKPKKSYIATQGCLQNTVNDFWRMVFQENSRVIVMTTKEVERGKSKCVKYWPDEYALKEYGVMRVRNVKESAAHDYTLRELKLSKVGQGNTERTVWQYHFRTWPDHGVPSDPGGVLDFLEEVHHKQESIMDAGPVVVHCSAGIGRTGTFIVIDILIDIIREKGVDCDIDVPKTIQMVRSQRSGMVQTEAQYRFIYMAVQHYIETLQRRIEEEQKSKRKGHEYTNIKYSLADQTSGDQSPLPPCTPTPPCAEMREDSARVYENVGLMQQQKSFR
In words: At the basal state, SHP2 is auto-inhibited and access of substrates to the catalytic site is blocked by the […] interactions between the SH2 domains and the PTP domain. When bis-tyrosyl-phosphorylated peptides bind to SH2 domain of SHP2, the PTP domain becomes available for substrate recognition and reaction catalysis and SHP2 is allosterically activated. SHP2 catalytic activity can be measured using a fluorogenic artificial substrate DiFMUP.The phosphatase reactions were carried out at room temperature in 384-well black polystyrene plates (Greiner Bio-One, Cat #784076) using assay buffers containing 60 mM HEPES, pH 7.2, 75 mM NaCl, 75 mM KCl, 1 mM EDTA, 0.05% P-20, and 5 mM DTT.0.33 nM of […] was co-incubated with of 0.5 μM of bisphos-IRS 1 peptide (sequence: H2N-LN(pY)IDLDLV(dPEG8)LST(pY)ASINFQK-amide) and various concentrations of compounds for 30-60 min at room temperature. Then the reaction was initiated by addition of the surrogate substrate DiFMUP (Invitrogen, Cat #D6567, 100 uM final).The real-time conversion of DiFMUP to DiFMU (6,8-difluoro-7-hydroxyl-4-methyl-coumarin) was measured every 5 min for 30 min using a microplate reader (CLARIOstar, BMG Labtech) with excitation and emission wavelengths of 340 nm and 450 nm, respectively. Initial reaction rates were determined by linear fitting of the data and the inhibitor dose response curves were analyzed using normalized IC50 regression curve fitting with control based normalization.
With `C[C@@H]1OCC2(CCN(c3ncc(Sc4cc5[nH]c6c(c5nc4Cl)CCCC6O)nc3CO)CC2)[C@@H]1N` (stereo partly specified), the IC50 was found to be 4.8 nM.

`C[C@@H]1OCC2(CCN(c3ncc(Sc4ccnc(N)c4Cl)nc3CO)CC2)[C@@H]1N`: the IC50 was found to be 0.9 nM.

With `C[C@@H]1OCC2(CCN(c3ncc(Sc4cccnc4C(F)(F)F)nc3[S+](C)[O-])CC2)[C@@H]1N` (stereo partly specified), the IC50 is 85 nM.

As for `C[C@@H]1OCC2(CCN(c3ncc(Sc4ccnc(N)c4Cl)nc3Cl)CC2)[C@@H]1N`, the IC50 amounted to 12 nM.

For `Nc1nccc(Sc2cnc(N3CCC4(CC3)Cc3ncccc3[C@H]4N)c(CO)n2)c1Cl`, the half-maximal inhibitory concentration (IC50) is 0.6 nM.

Regarding `COC1CCc2[nH]c3cc(Sc4cnc(N5CCC6(CC5)CO[C@@H](C)[C@H]6N)c(CO)n4)c(Cl)nc3c2C1` (stereo partly specified), the IC50 was determined as 5.5 nM.

With `C[C@@H]1OCC2(CCN(c3ncc(Sc4ccnc(N)c4Cl)nc3[S+](C)[O-])CC2)[C@@H]1N` (stereo partly specified), the IC50 stood at 13 nM.

`C[C@@H]1OCC2(CCN(c3ncc(Sc4ccnc(F)c4Cl)nc3[S+](C)[O-])CC2)[C@@H]1N` (stereo partly specified): the IC50 was determined as 21 nM.

In the case of `C[C@@H]1OCC2(CCN(c3ncc(Sc4ccnc(N)c4Cl)nc3O)CC2)[C@@H]1N`, the IC50 amounted to 13 nM.

For `C[C@@H]1OCC2(CCN(c3ncc(Sc4cc5[nH]c6c(c5nc4Cl)CC(O)CC6)nc3CO)CC2)[C@@H]1N` (stereo partly specified), the IC50 worked out at 3.5 nM.

Turning to `COc1nccc(Sc2cnc(N3CCC4(CC3)CO[C@@H](C)[C@H]4N)c([S+](C)[O-])n2)c1Cl` (stereo partly specified), the IC50 came out at 18 nM.

Turning to `C[C@@H]1OCC2(CCN(c3ncc(Sc4cc(N)nc(Cl)c4Cl)nc3[S+](C)[O-])CC2)[C@@H]1N` (stereo partly specified), the IC50 turned out to be 3 nM.

With `C[C@@H]1OCC2(CCN(c3ncc(Sc4ccnc(N5CCCC5)c4Cl)nc3[S+](C)[O-])CC2)[C@@H]1N` (stereo partly specified), the IC50 was determined as 13 nM.

As for `CN1C(=O)CCC12CC(N)C1(CCN(c3ncc(Sc4ccnc(N)c4Cl)nc3CO)CC1)C2` (stereo unspecified), the IC50 is 269 nM.

Take `C[C@@H]1OCC2(CCN(c3ncc(Sc4ccnc(Cl)c4Cl)nc3[S+](C)[O-])CC2)[C@@H]1N` (stereo partly specified): the IC50 turned out to be 6 nM.

With `Nc1nccc(Sc2cnc(N3CCC4(CC3)CCC3(CC3)C4N)c(CO)n2)c1Cl` (stereo unspecified), the IC50 amounted to 3 nM.

By IC50 is commonly meant the point on the concentration scale where inhibition reaches its midpoint.
